Laboratory results: patent US11660289B2 (Small Pharma Ltd, priority 2020, dated 2023)
Like-named read-outs stand apart in the source and are kept apart here.

How the values were obtained:
[1] = In vivo pharmacokinetic profile after IV and IM dosing in rats
[2] = Human liver mitochondrial fraction intrinsic clearance; type: in vitro ADME; conditions: 0.5 mg/mL human liver mitochondrial fraction
Method: Human Liver Mitochondrial (HLMt) fractions contain high quantities of MAO enzymes and therefore, provide a useful model system to measure the clearance of MAO substrates.
A series of investigations using HLMts were conducted to assess the effect of MAO on the metabolism of DMT and deuterated DMT analogues in vitro.

Human hepatocytes = test: Human hepatocyte stability of D0, D6 and D8 5-MeO-DMT analogues; type: in vitro ADME; conditions: for Fold change from 5-MeO-DMT, CLint / Fold change from 5-MeO-DMT, t1/2: Human hepatocytes; for Qualified CLint (μL/min/10^6 cells) / Qualified t1/2: cryopreserved pooled human hepatocytes, 0.5×10^6 viable cells/mL, 60 min
Method: (§1) Test compounds (5 μM) were incubated with cryopreserved hepatocytes in suspension. Samples were removed at 6 time points over the course of a 60 min experiment and test compounds were analysed by LC-MS/MS.
(§2) The final incubation volume was 500 μL.
(§3) Two control compounds were included with each species. Each compound was incubated for 0, 5, 10, 20, 40 and 60 min at 37° C. The reactions were stopped by transferring incubate into acetonitrile at the appropriate time points, in a 1:3 ratio. The termination plates were centrifuged at 3,000 rpm for 30 min at 4° C. to precipitate the protein.
(§4) Following protein precipitation, the sample supernatants were combined in cassettes of up to 4 compounds, internal standard was added and samples analysed using Cyprotex generic LC-MS/MS conditions.
(§5) From a plot of ln peak area ratio (compound peak area/internal standard peak area) against time, the gradient of the line is determined. Subsequently, half-life (t½) and intrinsic clearance (CLint) were calculated using the equations below:
(§6) Elimination rate constant (k)=(−gradient)
(§7) where V=Incubation volume (μL)/Number of cells

Rat hepatocytes = test: Rat hepatocyte stability of D0, D6 and D8 5-MeO-DMT analogues; type: in vitro ADME; conditions: for Fold change from 5-MeO-DMT, CLint / Fold change from 5-MeO-DMT, t1/2: Rat hepatocytes; for Qualified CLint (μL/min/10^6 cells) / Qualified t1/2: cryopreserved pooled rat hepatocytes, 0.5×10^6 viable cells/mL, 60 min
Method: as §1, §2, §3, §4, §5, §6, §7

[3] = tested on: Human (mixed gender) hepatocytes; test: Human hepatocyte intrinsic clearance of DMT and deuterated DMT analogues
Method: Standard final incubation conditions are 1 μM compound in buffer containing nominally ˜0.5 million viable cells/mL, ˜0.9% (v/v) acetonitrile (MeCN) and ˜0.1% (v/v) DMSO (specific assay concentrations outlined above, section 2).
Samples are then centrifuged at 4 oc.

[4] = cited from earlier work
[5] = Human half-life and clearance of DMT calculated from modelled literature data; conditions: in vivo; for clearance: read-out: clearance rate
Source text: DMT is metabolised very quickly in the human body. […] Based on these calculations, we reasoned that DMT is largely metabolised before reaching the human liver.

[6] = in vivo; cited from earlier work
[7] = Human hepatocyte stability of D0, D6 and D8 5-MeO-DMT analogues; type: in vitro ADME; conditions: cryopreserved pooled human hepatocytes in suspension, cryopreserved pooled human hepatocytes, 0.5×10^6 viable cells/mL, 60 min; for hepatocyte CLint: read-out: Qualified CLint (μL/min/10^6 cells); for half-life: read-out: Qualified t1/2
Method: as §1, §2, §3, §4, §5, §6, §7

[8] = Rat hepatocyte stability of D0, D6 and D8 5-MeO-DMT analogues; type: in vitro ADME; conditions: cryopreserved pooled rat hepatocytes, 0.5×10^6 viable cells/mL, 60 min; for half-life at 1 μM: cryopreserved pooled rat hepatocytes in suspension, read-out: Qualified t1/2; for hepatocyte CLint at 1 μM: read-out: Qualified CLint (μL/min/10^6 cells)
Method: as §1, §2, §3, §4, §5, §6, §7

[9] = calculated from modelled data of Timmermann et al.

[2H]C([2H])([2H])N(C([2H])([2H])[2H])C([2H])([2H])Cc1c[nH]c2ccccc12 [SPL028viii, α,α,bis-deuterio-N,N-hexadeuterio-dimethyltryptamine]
Overall exposure compared with DMT (SPL026) ([1]; rat plasma, following IV and IM dosing (FIGS. 1 to 3)): greater overall exposure | Total systemic exposure (mean AUC0-inf) compared to SPL026 ([1]; rats, equivalent single IV and IM doses, ANOVA): significantly higher total systemic exposure | Cmax compared with DMT (SPL026) ([1]; rats, following IM dosing): significantly higher | Intrinsic Clearance (μL/min/mg protein) [2]: 10.9 μL/min/mg protein

[2H]C([2H])([2H])N(CCc1c[nH]c2ccc(OC)cc12)C([2H])([2H])[2H] [Compound D6-5MeO-DMT, d6-5-Methoxydimethyltryptamine]
Fold change from 5-MeO-DMT, CLint (Human hepatocytes): 1.2 fold | Fold change from 5-MeO-DMT, t1/2 (Human hepatocytes): 1.2 fold | Qualified CLint (μL/min/10^6 cells) (Human hepatocytes): 85.7 μL/min/10^6 cells | Qualified t1/2 (Human hepatocytes): 16.2 min | Fold change from 5-MeO-DMT, CLint (Rat hepatocytes): 1.5 fold | Fold change from 5-MeO-DMT, t1/2 (Rat hepatocytes): 1.5 fold | Qualified CLint (μL/min/10^6 cells) (Rat hepatocytes): 205.5 μL/min/10^6 cells | Qualified t1/2 (Rat hepatocytes): 6.76 min

NCCc1c[nH]c2ccc(O)cc12 [Serotonin, serotonin]
Intrinsic Clearance (μL/min/mg protein) [2]: 151.0 μL/min/mg protein | half-life [2]: 9.2 min

[2H]C([2H])([2H])N(CCc1c[nH]c2ccccc12)C([2H])([2H])[2H] [SPL028vii, N,N-hexadeuterio-dimethyltryptamine]
Intrinsic clearance of SPL026 minus intrinsic clearance of SPL028vii [3]: 2.3 μL/min/million cells

CN(C)CCc1c[nH]c2ccccc12 [SPL026, N,N-dimethyltryptamine]
duration of action ([4]; in vivo): under 20 minutes | Difference in AUC0-inf between male and female groups ([1]; rats, 2 mg/kg IV fumarate): no significant difference | Intrinsic Clearance (μL/min/mg protein) [2]: 161.0 μL/min/mg protein | half-life [2]: 8.6 min | clearance ([5]; based on a 70 kg person): 350 mL/min/kg | half-life [5, 9]: ~5 min | clearance [5, 9]: 24500 mL/min

[2H]C([2H])(c1c[nH]c2ccccc12)C([2H])([2H])N(C)C [Compound D4DMT, α,α,β,β-tetradeuterio-DMT]
onset and behaviour disrupting effects compared to equal doses of DMT [6]: shorter time to onset and potentiation of behaviour disrupting effects

d8-5-Methoxydimethyltryptamine [Compound D8-5MeO-DMT]
Fold change from 5-MeO-DMT, CLint (Human hepatocytes): 1.8 fold | Fold change from 5-MeO-DMT, t1/2 (Human hepatocytes): 1.8 fold | Qualified CLint (μL/min/10^6 cells) (Human hepatocytes): 57.6 μL/min/10^6 cells | Qualified t1/2 (Human hepatocytes): 24.3 min | Fold change from 5-MeO-DMT, CLint (Rat hepatocytes): 1.8 fold | Fold change from 5-MeO-DMT, t1/2 (Rat hepatocytes): 1.8 fold | Qualified CLint (μL/min/10^6 cells) (Rat hepatocytes): 176.0 μL/min/10^6 cells | Qualified t1/2 (Rat hepatocytes): 7.89 min

COc1ccc2[nH]cc(CCN(C)C)c2c1 [Compound 5-MeO-DMT, 5-Methoxy-N,N-dimethyltryptamine]
hepatocyte CLint [7]: 104 µL/min/1e6 cells | half-life [7]: 13.3 min | half-life at 1 μM [8]: 4.46 min | hepatocyte CLint at 1 μM [8]: 312 µL/min/1e6 cells

NCc1ccccc1 [Benzylamine, benzylamine]
Intrinsic Clearance (μL/min/mg protein) [2]: 60.0 μL/min/mg protein | half-life [2]: 23.2 min

O=C(c1ccc(OCCN2CCCCC2)cc1)c1c(-c2ccc(O)cc2)sc2cc(O)ccc12 [Raloxifene]
hepatocyte CLint [7]: 152 µL/min/1e6 cells | half-life [7]: 9.13 min | half-life at 1 μM [8]: 11.1 min | hepatocyte CLint at 1 μM [8]: 125 µL/min/1e6 cells

CNCCc1c[nH]c2ccccc12 [NMT, N-Methyltryptamine]
duration of “visuals” ([4]; smoking, 50-100 mg): 15 to 30 s
